Assay results published in patent US10899738B2 (THE REGENTS OF THE UNIVERSITY OF MICHIGAN, priority 2016, dated 2021).

Target: menin protein (Homo sapiens (Human), UniProt O00255)
Assay: biochemical
Format: binding
Details: FP competitive binding; menin protein 4 nM, FAM-MM2 probe 2 nM; read-out: Menin Binding Affinity IC50
Outline: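 Competitive fluorescence polarization assay using FAM-labelled MLL1 peptide probe FAM-MM2 (2 nM final) preincubated with menin (4 nM final) in PBS with 0.02% bovine γ-globulin, 4% DMSO and 0.01% Triton X-100. Compounds were added and incubated 30 min at room temperature. IC50 came from nonlinear regression of competition curves, with Ki also derived.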

menin protein, sequence (O00255 whole entry): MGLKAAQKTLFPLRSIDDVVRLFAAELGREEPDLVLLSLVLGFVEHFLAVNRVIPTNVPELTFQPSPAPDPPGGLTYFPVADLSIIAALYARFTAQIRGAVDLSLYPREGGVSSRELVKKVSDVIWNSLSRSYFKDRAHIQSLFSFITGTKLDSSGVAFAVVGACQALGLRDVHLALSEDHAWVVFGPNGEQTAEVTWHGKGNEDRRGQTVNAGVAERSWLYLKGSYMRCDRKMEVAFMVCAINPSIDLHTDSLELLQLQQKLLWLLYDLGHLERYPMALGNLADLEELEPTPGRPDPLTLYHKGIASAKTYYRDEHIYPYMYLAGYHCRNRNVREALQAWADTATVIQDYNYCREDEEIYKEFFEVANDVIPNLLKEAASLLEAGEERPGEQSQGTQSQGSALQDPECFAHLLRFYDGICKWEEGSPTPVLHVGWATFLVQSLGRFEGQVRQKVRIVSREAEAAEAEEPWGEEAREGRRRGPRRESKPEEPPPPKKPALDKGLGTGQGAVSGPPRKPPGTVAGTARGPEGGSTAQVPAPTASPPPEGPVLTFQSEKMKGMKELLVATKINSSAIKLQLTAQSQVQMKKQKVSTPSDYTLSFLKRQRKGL

Row | Structure (SMILES) | IC50 [nM]
1 | CC(=O)O[C@H]1CCC[C@@H]1C1(C2CCN(CC3CN(c4ccc(S(=O)(=O)c5ccnc(C)c5)cc4)C3)CC2)CN(C)Cc2ccccc21 (mixture of isomers) [compound 202, rac-(1R,2S)-2-(2-methyl-4-(1-((1-(4-((2-methylpyridin-4-yl)sulfonyl)phenyl)azetidin-3-yl)methyl)piperidin-4-yl)-1,2,3,4-tetrahydroisoquinolin-4-yl)cyclopentyl acetate] | 113
2 | CN1Cc2ccccc2C(C2CCCC2)(C2CCN(CCCOc3ccc(S(C)(=O)=O)cc3)CC2)C1 (stereo not shown) [compound 68, 4-cyclopentyl-2-methyl-4-(1-(3-(4-(methylsulfonyl)phenoxy)propyl)piperidin-4-yl)-1,2,3,4-tetrahydroisoquinoline] | 181
3 | N#Cc1ccc(N2CC(C(=O)N3CCC(C4(C5CCCC5)NCCc5ccccc54)CC3)C2)cc1 (stereo not shown) [compound 128, 4-(3-(4-(1-cyclopentyl-1,2,3,4-tetrahydroisoquinolin-1-yl)piperidine-1-carbonyl)azetidin-1-yl)benzonitrile] | 4100
4 | N#Cc1ccc(OC2CC(N3CCC(C4(C5CCCC5)NCCc5ccccc54)CC3)C2)cc1 (single isomer, unassigned) [compound 130, 4-((1s,3s)-3-(4-(1-cyclopentyl-1,2,3,4-tetrahydroisoquinolin-1-yl)piperidin-1-yl)cyclobutoxy)benzonitrile] | 10600
5 | CS(=O)(=O)c1ccc(N2CC(CN3CCC(C4(C5CCCC5)C(=O)N(Cc5ccccc5)Cc5ccccc54)CC3)C2)cc1 (stereo not shown) [compound 25, 2-benzyl-4-cyclopentyl-4-(1-((1-(4-(methylsulfonyl)phenyl)azetidin-3-yl)methyl)piperidin-4-yl)-1,4-dihydroisoquinolin-3(2H)-one] | 2700
6 | CCC(CC)C(=O)N1CCCCC1C1(C2CCN(CCCOc3ccc(C#N)cc3)CC2)CN(C)Cc2ccccc21 (stereo not shown) [compound 301, 4-(3-(4-(4-(1-(2-ethylbutanoyl)piperidin-2-yl)-2-methyl-1,2,3,4-tetrahydroisoquinolin-4-yl)piperidin-1-yl)propoxy)benzonitrile] | 34800
7 | C[C@@H]1CC(C(C#N)(c2ccccc2)C2CCCC2)C[C@H](C)N1CCCOc1ccc(C#N)cc1 (stereo partly drawn) [compound 121, 4-(3-((2S,6R)-4-(cyano(cyclopentyl)(phenyl)methyl)-2,6-dimethylpiperidin-1-yl)propoxy)benzonitrile] | 13100
8 | CO[C@@H]1CCC[C@@H]1C(C#N)(c1ccccc1)C1CCN(CCCOc2ccc(C#N)cc2)CC1 (mixture of isomers) [compound 177, rac-4-(3-(4-(cyano((1R,2R)-2-methoxycyclopentyl)(phenyl)methyl)piperidin-1-yl)propoxy)benzonitrile] | 3600
9 | N#Cc1ccc(OCCCN2CCC(C3(C4CCC4)NCCc4ccccc43)CC2)cc1 (stereo not shown) [compound 247, 4-(3-(4-(1-cyclobutyl-1,2,3,4-tetrahydroisoquinolin-1-yl)piperidin-1-yl)propoxy)benzonitrile] | 1100
10 | C=CCC1(C2CCN(CCCOc3ccc(C#N)cc3)CC2)NCCc2ccccc21 (stereo not shown) [compound 293, 4-(3-(4-(1-allyl-1,2,3,4-tetrahydroisoquinolin-1-yl)piperidin-1-yl)propoxy)benzonitrile] | 2800
11 | FCC1(CF)CC(N2CCC(C3(C4CCCC4)NCCc4ccccc43)CC2)C1 (stereo not shown) [compound 56, 1-(1-(3,3-bis(fluoromethyl)cyclobutyl)piperidin-4-yl)-1-cyclopentyl-1,2,3,4-tetrahydroisoquinoline] | 18200
12 | CO[C@@H]1CCC[C@H]1C(C#N)(c1ccccc1)C1CCN(CC2CN(c3ccc(S(C)(=O)=O)cc3)C2)CC1 (mixture of isomers) [compound 180, rac-2-((1S,2R)-2-methoxycyclopentyl)-2-(1-((1-(4-(methylsulfonyl)phenyl)azetidin-3-yl)methyl)piperidin-4-yl)-2-phenylacetonitrile] | 9700
13 | N#Cc1ccc(N2CC(CN3CCC(C4(C5CCCC5)NCCc5ccccc54)CC3)C2)nc1 (stereo not shown) [compound 110, 6-(3-((4-(1-cyclopentyl-1,2,3,4-tetrahydroisoquinolin-1-yl)piperidin-1-yl)methyl)azetidin-1-yl)nicotinonitrile] | 575000
14 | CCC(=O)O[C@@H]1CCC[C@H]1C(C#N)(c1ccccc1)C1CCN(CC2CN(c3ccc(S(=O)(=O)c4ccncc4)cc3)C2)CC1 (mixture of isomers) [compound 196, rac-(1R,2S)-2-(cyano(phenyl)(1-((1-(4-(pyridin-4-ylsulfonyl)phenyl)azetidin-3-yl)methyl)piperidin-4-yl)methylcyclopentyl propionate] | 1000
15 | CN1Cc2ccccc2C(C2CCCC2)(C2CCN(CC3CN(c4ccc(S(C)(=O)=O)cc4)C3)CC2)C1 (stereo not shown) [compound 64, 4-cyclopentyl-2-methyl-4-(1-((1-(4-(methylsulfonyl)phenyl)azetidin-3-yl)methyl)piperidin-4-yl)-1,2,3,4-tetrahydroisoquinoline] | 61
16 | N#Cc1ccc(OCCCN2CCC(C3(C4CCCC4)COCc4ccccc43)CC2)cc1 (stereo not shown) [compound 35, 4-(3-(4-(4-cyclopentylisochroman-4-yl)piperidin-1-yl)propoxy)benzonitrile] | 3200
17 | CC(=O)O[C@@H]1CCC[C@H]1C(C#N)(c1ccccc1)C1CCN(CC2CN(c3ccc(S(C)(=O)=O)cc3)C2)CC1 (mixture of isomers) [compound 184, rac-(1R,2S)-2-(cyano(1-((1-(4-(methylsulfonyl)phenyl)azetidin-3-yl)methyl)piperidin-4-yl)(phenyl)methyl)cyclopentyl actate] | 2600

The next lines start with the values.

Row | IC50 [nM] | Structure (SMILES)
18 | 37600 | CN([C@H]1CCC[C@@H]1C(C#N)(c1ccccc1)C1CCN(CC2CN(c3ccc(S(=O)(=O)C4CC4)cc3)C2)CC1)S(C)(=O)=O (mixture of isomers) [compound 273, rac-N-((1S,2R)-2-(cyano(1-((1-(4-(cyclopropylsulfonyl)phenyl)azetidin-3-yl)methyl)piperidin-4-yl)(phenyl)methyl)cyclopentyl)-N-methylmethanesulfonamide]
19 | 4600 | N#CC(c1ccccc1)(C1CCN(CC2CN(c3ccc(S(=O)(=O)c4ccncc4)cc3)C2)CC1)[C@@H]1CCC[C@H]1CO (mixture of isomers) [compound 257, rac-2-((1R,2R)-2-(hydroxymethyl)cyclopentyl)-2-phenyl-2-(1-((1-(4-(pyridin-4-ylsulfonyl)phenyl)azetidin-3-yl)methyl)piperidin-4-yl)acetonitrile]
20 | 1400 | CN1COCN([C@@H]2CCC[C@H]2C(C#N)(c2ccccc2)C2CCN(CC3CN(c4ccc(S(=O)(=O)c5ccncc5)cc4)C3)CC2)C1=O (mixture of isomers) [compound 280, rac-2-((1S,2R)-2-(5-methyl-4-oxo-1,3,5-oxadiazinan-3-yl)cyclopentyl)-2-phenyl-2-(1-((1-(4-(pyridin-4-ylsulfonyl)phenyl)azetidin-3-yl)methyl)piperidin-4-yl)acetonitrile]
21 | 174 | COC(=O)N[C@H]1CCC[C@@H]1C(C#N)(c1ccccc1)C1CCN(CCC#Cc2ccc(S(=O)(=O)C(F)(F)F)cc2)CC1 (mixture of isomers) [compound 405, methyl rac-((1S,2R)-2-(cyano(phenyl)(1-(4-(4-((trifluoromethyl)sulfonyl)phenyl)but-3-yn-1-yl)piperidin-4-yl)methyl)cyclopentyl)carbamate]
22 | 3280 | CC(=O)O[C@@H]1CCC[C@H]1C(C#N)(c1cccc(F)c1)C1CCN(CC2CN(c3ccc(C#N)cc3)C2)CC1 (mixture of isomers) [compound 416, rac-(1R,2S)-2-(cyano(1-((1-(4-cyanophenyl)azetidin-3-yl)methyl)piperidin-4-yl)(3-fluorophenyl)methyl) cyclopentyl acetate]
23 | 46 | CNC(=O)O[C@@H]1CCC[C@H]1C(Cn1ccnc1)(c1ccccc1)C1CCN(CC2CN(c3ccc(S(=O)(=O)c4cnn(C)c4)cc3)C2)CC1 (mixture of isomers) [compound 239, rac-(1R,2S)-2-(2-(1H-imidazol-1-yl)-1-(1-((1-(4-((1-methyl-1H-pyrazol-4-yl)sulfonyl)phenyl)azetidin-3-yl)methyl)piperidin-4-yl)-1-phenethyl)cyclopentyl methylcarbamate]
24 | 131 | CC(=O)O[C@@H]1CCC[C@H]1C1(C2CCN(CCCOc3ccc(C#N)cc3)CC2)CN(C)Cc2ccc(F)cc21 (mixture of isomers) [compound 315, rac-(1R,2S)-2-(4-(1-(3-(4-cyanophenoxy)propyl)piperidin-4-yl)-6-fluoro-2-methyl-1,2,3,4-tetrahydroisoquinolin-4-yl)cyclopentyl acetate]
25 | 108 | CNC(=O)N[C@@H]1CCC[C@H]1C(CN)(c1ccccc1)C1CCN(CC2CN(c3ccc(S(=O)(=O)c4ccccc4)cc3)C2)CC1 (mixture of isomers) [compound 322, rac-1-((1R,2S)-2-(2-amino-1-phenyl-1-(1-((1-(4-(phenylsulfonyl)phenyl)azetidin-3-yl)methyl)piperidin-4-yl)ethyl)cyclopentyl)-3-methylurea]
26 | 563 | N#CC(c1ccccc1)(C1CCN(CC2CN(c3ccc(S(=O)(=O)c4ccncc4)cc3)C2)CC1)[C@H]1CCC[C@@H]1CO (mixture of isomers) [compound 258, rac-2-((1S,2S)-2-(hydroxymethyl)cyclopentyl)-2-phenyl-2-(1-((1-(4-(pyridin-4-ylsulfonyl)phenyl)azetidin-3-yl)methyl)piperidin-4-yl)acetonitrile]
27 | 122 | CC(=O)O[C@@H]1CCC[C@H]1C1(C2CCN(CC3CN(c4ccc(S(=O)(=O)C5CC5)cc4)C3)CC2)CN(C)Cc2ccccc21 (mixture of isomers) [compound 204, rac-(1R,2S)-2-(4-(1-((1-(4-(cyclopropylsulfonyl)phenyl)azetidin-3-yl)methyl)piperidin-4-yl)-2-methyl-1,2,3,4-tetrahydroisoquinolin-4-yl)cyclopentyl acetate]
28 | 897 | N#CC(c1ccccc1)(C1CCN(CC2CN(c3ccc(S(=O)(=O)c4ccncc4)cc3)C2)CC1)[C@H]1CCC[C@@H]1CCO (mixture of isomers) [compound 342, rac-2-((1S,2R)-2-(2-hydroxyethyl)cyclopentyl)-2-phenyl-2-(1-((1-(4-(pyridin-4-ylsulfonyl)phenyl)azetidin-3-yl)methyl)piperidin-4-yl)acetonitrile]
